Test [1] has as its system purified saccharose synthase from rice. The experiment in a line: Substrate spectrum for the synthesis of disaccharides: variation of the nucleotide sugar, fructose as acceptor. It is filed as biochemical. To be noted: for reaction of UDP-sugar with the rice enzyme (in words): Table 4; for Relative Activity %: UDP-sugars with fructose as acceptor, 2 hours at 30° C., pH 7.5, UDP-glucose = 100. The protocol:
A: Variation of the Nucleotide Sugar.
For the synthesis reaction the nucleotide sugars were varied:
The composition contained:
The composition was incubated for 2 hours at 30° C. and stopped for 5 minutes at 95° C. With HPLC, with comparison with a control (without enzyme) the development of UDP was followed.

Test [2] concerns purified sucrose-synthase from rice. The experiment in a line: Substrate spectrum for the synthesis of disaccharides: variation of the acceptor, reacted with UDP-glucose. It is filed as biochemical. To be noted: for Relative Activity %: acceptor substrates reacted with UDP-glucose, D-fructose = 100. The protocol: 12. Substrate Spectrum of the Saccharose-synthase from rice for the synthesis of Disaccharides.
B: Variation of the Acceptor.
For the synthesis reaction, the acceptor was varied. Apart from the natural acceptor, other diastereomers of D-fructose, like D-psicose, D-tagatose, D-sorbose were introduced. Further, several keytoses were systematically tested. Apart from Aldoses, nonsugar acceptors were also tested.

The next test has as its system saccharose synthase. The experiment in a line: Dependence on divalent metal ions. It is filed as biochemical, rice. To be noted: 1 mM of metal ions. An excerpt: 9. Dependence on Divalent Metal Ions
The test system of test [3] is purified sucrose-synthase from rice. Briefly: Substrate spectrum of the sucrose-synthase for the splitting reaction (saccharide + UDP). It is filed as biochemical. To be noted: for replacement of saccharose in the splitting reaction (in words): Table 3; for Relative Activity %: substrate splitting with UDP, 2 mM UDP, saccharide 75 to 500 mM, 3 h at 30° C., pH 7.2, Saccharose = 100. The protocol: 11. Substrate Spectrum of the Sucrose-Synthase for the splitting reaction (I)
For the splitting reaction of the sucrose-synthase, sucrose was replaced by other disaccharide or trisaccharide:
α-Glc 1-2 β-Fruc+UDP (TDP) UDP-Glc (TDP-Glc)
The concentration of the saccharide amounted to 75 to 500 mM in the reaction composition. 2 mM UDP or TDP and as a rule 10 to 80 mU enzyme were introduced. After 3 h at 30° C. and pH 7.2 (200 mM Hepes-NaOH), the reaction was stopped at 95° C. 5 min. The formation of nucleotide sugars was followed with HPLC and compared with a control (without enzyme).

For test [4], the system named is purified Sucrose-synthase. Briefly: Substrate spectrum of the nucleosidediphosphate. It is filed as biochemical, rice. To be noted: pH 7.2, 30° C., FIG. 2. The protocol:
1. Substrate spectrum of the nucleosidediphosphate.
UDP, TDP, CDP, ADP and GDP were investigated. The reaction compositions contained:
100 μl Nucleosidediphosphate (15-90 mM)
100 μl purified Sucrose-synthase (21.1 mU/ml)
The reaction composition was incubated at 30° C. and stopped at different times (5 min. at 95° C.). After filtration of the sample through a 0.22 μm filter, the resulting nucleotide sugar was analyzed by means of ionpair HPLC.

The test system of test [5] is rice enzyme (sucrose-synthase). The experiment in a line: Kinetics (Vmax, Km) of the splitting reaction. It is filed as biochemical. To be noted: sucrose 500 mM; for Km: UDP or TDP varied 0 to 10 mM, 1 h at 30° C., pH 6.5. The protocol: […] All reaction mixtures were incubated for 1 h at 30° C. and pH 6.5 (Hepes-NaOH 200 mM). The samples were treated as described above and analyzed with HPLC. […] The substrate excess inhibition can be countered by higher enzyme quantities.

pKi: −log10 of the molar value.

The source of these data is patent US5750389A, “Purified saccharose-synthase, process for its production and its use” (Forschungszentrum Julich GmbH, priority 1992, dated 1998).

One may read the Km as the substrate concentration at which the rate is half of its maximum. Usually pKi stands for −log10 of the Ki, conventionally taken in molar units.

As for `CC(=O)N[C@H]1[C@@H](OP(=O)(O)OP(=O)(O)OC[C@H]2O[C@@H](n3ccc(=O)[nH]c3=O)[C@H](O)[C@@H]2O)O[C@H](CO)[C@@H](O)[C@@H]1O` [UDP-N-acetylglucosamine], in test [1], the “reaction of UDP-sugar with the rice enzyme (in words)” value was “can be reacted with the rice enzyme” and the “Relative Activity %” value was found to be 1.8%.
Turning to `O[C@@H]1[C@@H](O)[C@@H]2OC[C@@H](O2)[C@H]1O` [1,6-Anhydroglucose], in test [2], the “acceptor of sucrose-synthase (in words)” value is reported as “acceptors” and the “Relative Activity %” value worked out at 9.1%.
Turning to `[Ca+2]` [Ca^2+], the “influence of metal ions on the enzyme activity, TDP as the substrate” value in the test with saccharose synthase is recorded as “stimulation of the enzyme activity”.
On to `C[C@H](O)[C@@H](O)[C@H](O)C(=O)CO` [6-desoxy-L-sorbase], for which the “Relative Activity %” value in test [2] is given as 8.8%.
Consider `OC[C@H]1O[C@H](OC[C@H]2O[C@H](O[C@]3(CO)O[C@H](CO)[C@@H](O)[C@@H]3O)[C@H](O)[C@@H](O)[C@@H]2O)[C@H](O)[C@@H](O)[C@H]1O` [Raffinose], for which, in test [3], the “replacement of saccharose in the splitting reaction (in words)” value (from here on “replacement of saccharose”) is “can replace the saccharose” and the “Relative Activity %” value is 3.8%. For the same compound, in test [2], the “acceptor of sucrose-synthase (in words)” value is on record as “can also serve as acceptors” and the “Relative Activity %” value was 8.4%.
Regarding `Nc1ccn([C@@H]2O[C@H](COP(=O)(O)OP(=O)(O)O)[C@@H](O)[C@H]2O)c(=O)n1` [CDP], in test [4], the “acceptance of the nucleosidediphosphate (rate of NDP-glucose formation)” value (“acceptance of the nucleosidediphosphate” below) is “accepted in the sequence UDP, TDP, ADP, CDP and GDP”.
As for `Nc1nc2c(ncn2[C@@H]2O[C@H](COP(=O)(O)OP(=O)(O)O)[C@@H](O)[C@H]2O)c(=O)[nH]1` [GDP], the “acceptance of the nucleosidediphosphate” value in test [4] is “accepted in the sequence UDP, TDP, ADP, CDP and GDP”.
In the case of `Cc1cn([C@H]2C[C@H](O)[C@@H](COP(=O)(O)OP(=O)(O)O)O2)c(=O)[nH]c1=O` [TDP], in test [5], the Km is 650 µM. Also, the “acceptance of the nucleosidediphosphate” value in test [4] was “accepted in the sequence UDP, TDP, ADP, CDP and GDP”.
As for `CC(=O)[C@@H](O)[C@H](O)C(=O)CO` [5-keto-6-deoxy-D-fructose], the “Relative Activity %” value in test [2] came to 25.1%.
As to `[Mn+2]` [Mn^2+], in the test with saccharose synthase, the “influence of metal ions on the enzyme activity” value was “influenced only slightly” and the “influence of metal ions on the enzyme activity, TDP as the substrate” value is given as “stimulation of the enzyme activity”.
For `OC1CCNC1` (centres unmarked) [3-hydroxypyrrolidine], in test [2], the “Relative Activity %” value turned out to be 6.3%.
Turning to `O=C[C@@H](O)[C@@H](O)[C@H](O)CO` [D-lyxose], in test [2], the “acceptor of sucrose-synthase (in words)” value is on record as “acceptors” and the “Relative Activity %” value is recorded as 14.7%.
Regarding `O=C(CO)[C@@H](O)[C@H](O)[C@@H](O)CO` [L-sorbose], in test [2], the “acceptor of sucrose-synthase (in words)” value is “acceptors” and the “Relative Activity %” value was 6.0%.
Take `CN1CCC(O)C1` (centres unmarked) [3-hydroxy-N-methyl-pyrrolidine]: in test [2], the “Relative Activity %” value came out at 1.9%.
Same read-out and setting: next, `OCCN1CCCCC1`: 9.4%; `CC(C)[C@@H](O)[C@H](O)C(=O)CO` [5,6-dideoxy-5-methyl-D-fructose]: 19.0%.
Turning to `OCC(O)CN1CCCC1` (centres unmarked) [3-pyrrolidino-1,2-propandiol], the “Relative Activity %” value in test [2] is recorded as 9.6%.
For the compound `CC[C@@H](O)[C@H](O)C(=O)CO` [5,6-dideoxy-D-fructose], the “Relative Activity %” value in test [2] is 7.6%.
On to `O=c1ccn([C@@H]2O[C@H](COP(=O)(O)OP(=O)(O)O)[C@@H](O)[C@H]2O)c(=O)[nH]1` [UDP], for which the Km in test [5] is 400 µM. For the same compound, the negative-log Ki (pKi) in test [5] (with 0.9 mU enzyme, pH 6.5, 30° C., read-out: substrate excess inhibition Ki(S)) was 1.80. In addition, the “acceptance of the nucleosidediphosphate” value in test [4] is “accepted in the sequence UDP, TDP, ADP, CDP and GDP”.
As for `O=C(CO)[C@@H](O)[C@H](O)CO` [D-xylulose], in test [2], the “acceptor of sucrose-synthase (in words)” value was “acceptors” and the “Relative Activity %” value turned out to be 40.7%.
For the compound `[Mg+2]` [Mg^2+], the “influence of metal ions on the enzyme activity” value in the test on saccharose synthase is “influenced only slightly”.
For `OC[C@H]1O[C@@H](O[C@@H]2[C@@H](CO)OC(O)(CO)[C@H]2O)[C@H](O)[C@@H](O)[C@H]1O` (mixture of isomers) [Lactulose], in test [2], the “acceptor of sucrose-synthase (in words)” value was “can also serve as acceptors” and the “Relative Activity %” value was found to be 12.3%.
Consider `O=C(CO)[C@H](O)[C@H](O)[C@H](O)CO` [D-psicose], for which the “Relative Activity %” value in test [2] stood at 14.1%.
Regarding `CC1(C)S[C@@H]2[C@H](NC(=O)[C@H](N)c3ccccc3)C(=O)N2[C@H]1C(=O)O` [Ampicillin, reference compound], the “Relative Activity %” value in test [3] was 2.4%.
Regarding `O=C(CO)[C@@H](O)[C@@H](O)[C@H](O)CO` [D-tagatose], in test [2], the “Relative Activity %” value came out at 28.3%.
Turning to `O=C(CO)[C@@H](O[C@H]1O[C@H](CO)[C@@H](O)[C@H](O)[C@H]1O)[C@H](O)[C@H](O)CO` [Turanose], the “Relative Activity %” value in test [2] is on record as 0.5%.
Turning to `[Fe+2]` [Fe^2+], the “influence of metal ions on the enzyme activity” value in the test with saccharose synthase was “completely inactivated”.
For the compound `CN1[C@@H]2CC[C@H]1C[C@@H](O)C2` [Tropin], the “Relative Activity %” value in test [2] is listed as 10.3%.
For `OC[C@H]1O[C@@](CO)(O[C@H]2O[C@H](CO)[C@@H](O)[C@H](O)[C@H]2O)[C@@H](O[C@H]2O[C@H](CO)[C@@H](O)[C@H](O)[C@H]2O)[C@@H]1O` [Melizitose], in test [3], the “replacement of saccharose” value is given as “can replace the saccharose” and the “Relative Activity %” value was 0.4%. Moreover, in test [2], the “Relative Activity %” value was found to be 0.6%.
In the case of `CCCCCCCCO[C@@H]1O[C@H](CO)[C@@H](O)[C@H](O)[C@H]1O` [Octyl-β-D-glucopyranoside], in test [2], the “acceptor of sucrose-synthase (in words)” value is “acceptors” and the “Relative Activity %” value is 0.5%.
With `OC[C@H]1O[C@H](OC[C@H]2OC(O)(CO)[C@@H](O)[C@@H]2O)[C@H](O)[C@@H](O)[C@@H]1O` (some centres unmarked) [Isomaltulose], the “replacement of saccharose” value in test [3] is “can replace the saccharose”. For the same compound, the “Relative Activity %” value was found to be 1.0% in test [3] and 3.1% in test [2].
As for `O=C[C@@H](O)[C@@H](O)[C@H](O)[C@H](O)CO` [D-mannose], in test [2], the “acceptor of sucrose-synthase (in words)” value is on record as “acceptors” and the “Relative Activity %” value is recorded as 3.9%.
With `O=c1ccn([C@@H]2O[C@H](COP(=O)(O)OP(=O)(O)O[C@H]3OC[C@@H](O)[C@H](O)[C@H]3O)[C@@H](O)[C@H]2O)c(=O)[nH]1` [UDP-xylose], in test [1], the “reaction of UDP-sugar with the rice enzyme (in words)” value is given as “can be reacted with the rice enzyme” and the “Relative Activity %” value came out at 1.7%.
As to `O=C[C@H](O)[C@@H](O)[C@@H](O)CO` [L-arabinose], in test [2], the “acceptor of sucrose-synthase (in words)” value is recorded as “acceptors” and the “Relative Activity %” value is reported as 3.2%.
In the case of `OC[C@@]12OC[C@@H](O1)[C@@H](O)[C@@H](O)[C@@H]2O` [Sedoheptulose Anhydride], the “Relative Activity %” value in test [2] stood at 1.1%.
Consider `O=C(CO)[C@@H](O)[C@H](O)[C@H](O)CO` [D-fructose], for which the “Relative Activity %” value in test [2] is 100%.
For `[Cu+2]` [Cu^2+], the “influence of metal ions on the enzyme activity” value with saccharose synthase is on record as “completely inactivated”.
Take `OC[C@H]1O[C@@](CO)(O[C@H]2O[C@H](CO)[C@@H](O)[C@H](O)[C@H]2O)[C@@H](O)[C@@H]1O` [Saccharose]: the “Relative Activity %” value in test [3] amounted to 100%.
As to `CCN1CCC(O)C1` (centres unmarked) [1-ethyl-3-hydroxy-pyrrolidine], the “Relative Activity %” value in test [2] is given as 10.4%.
Consider `Nc1ncnc2c1ncn2[C@@H]1O[C@H](COP(=O)(O)OP(=O)(O)O)[C@@H](O)[C@H]1O` [ADP], for which the “acceptance of the nucleosidediphosphate” value in test [4] is “accepted in the sequence UDP, TDP, ADP, CDP and GDP”.
`OC[C@H]1O[C@@](CO)(O[C@@H]2C[C@@H](O)[C@H](O)[C@@H](CO)O2)[C@@H](O)[C@@H]1O` [2-deoxy-saccharose]: in test [3], the “Relative Activity %” value came out at 55%.
